Laboratory results taken from US20080051379A1, “Compositions and Methods for the Treatment of Peripheral B-Cell Neoplasms” (Trustees of Boston University, priority 2004, published 2008).

Columns and labels:
Type in all cases: cell-based, human
B-CLL cells = experiment: Hoechst 33342 apoptosis assay, B-CLL cells; conditions: for apoptosis by Hoechst 33342 analysis: 48 hrs culture, Roli 10 μM, HC 1 μM
Procedure: FIGS. 1A-D show the effects of the cyclic nucleotide phosphodiesterase inhibitors rolipram, RO20-1724 and cilostamide on hydrocortisone and dexamethasone-induced apoptosis in B-CLL. In FIG. 1A, leukemic cells from 11 B-CLL patients were assessed for apoptosis by […] analysis after 48 hrs culture in media alone (No treatment), 10 μM rolipram (Roli), 1 μM hydrocortisone (HC) or a combination of the two drugs (Roli+HC). In FIGS. 1B and 1C, leukemic cells from five patients with B-CLL were cultured in media alone or with a dose titration of hydrocortisone (1B: solid line) or dexamethasone (1C: solid line), followed by assessment for apoptosis by Hoechst 33342 FACS analysis at 48 hours. Using the same experimental conditions, the effect of addition of 10 μM rolipram (thick dashed line) to the glucocorticoids was also assessed. In FIG. 1D, the apoptotic effects of the PDE4 inhibitor RO20-1724 (RO20) (10 μM) or the PDE3 inhibitor cilostamide (Cilost) (10 μM) were assessed on B-CLL cells when combined with 1 μM hydrocortisone. Data represent the mean±SEM of triplicate samples.
Blood samples were obtained by IRB-approved consent from flow cytometry-confirmed B-CLL patients that were either untreated or for whom at least one month had elapsed since chemotherapy. Patients with active infections or other serious medical conditions were not included in this study.
CCRF-CEM cells were obtained from ATCC^27. Leukemic or normal mononuclear cells were obtained by centrifugation over Histopaque 1077 (Sigma Chemical Company, St. Louis, Mo.). For purification of T cells, whole mononuclear cells from normal subjects were incubated with magnetic beads coated with appropriate antibodies, then positively purified using a magnet (Miltenyi). Cells were cultured in RPMI 1640 media (Biowhittaker, Walkersville, Md.) supplemented with 10% fetal calf serum, 50 μMol/L 2-mercaptoethanol, 2 mMol/L L-glutamine, 10 mM Hepes pH 7.4, […] (Sigma Chemical Company, St. Louis, Mo.). For isolation of glucocorticoid resistant clones, parental CCRF-CEM cells were treated with 1 μM dexamethasone for 10 days, and surviving cells diluted to ≦one cell/well in a 96-well flat-bottom tissue culture plate, grown for three weeks in media supplemented with 20% fetal calf serum and 1% insulin-transferrin-selenium (GIBCO), and then transferred to regular growth medium. […] For isolation of glucocorticoid-sensitive clones, the same procedure was used, except that treatment with dexamethasone was omitted. A glucocorticoid-sensitive subclone (CEM-S2) was inhibited in its survival by dexamethasone with an IC50=0.007 μM.
Hoechst 33342 and DiOC6(3) apoptosis assays were performed as previously described^22,28. For CCRF-CEM cell survival assays, cells were plated at a density of 3×10^4/well in 96-well flat-bottom plates in the presence of test reagents or vehicle in 0.1 mL media. Following incubation for 72 hrs, 20 μl of a 20:1 MTS (2 mg/mL)/PMS (0.92 mg/ml) solution was added to each well, and the plates incubated for 2 hrs at 37°. The absorbance (O.D.) of the formazan product was determined at 492 nm using a plate reader (Titertek Multiscan Plus, Labsystems). Percent cell viability was calculated as follows: (O.D. control sample−O.D. blank)/(O.D. test sample−O.D. blank)×100. All assays were performed in triplicate.

[1] = system: PDE4A, PDE4B or PDE4D expression in B-CLL cells; experiment: Western analysis of PDE4 isoforms, B-CLL cells; conditions: 10 μM rolipram, 18 hours
Procedure: B-CLL and CCRF-CEM cells were incubated for 18 hours with media alone, 10 μM rolipram, 10 μM forskolin (Fsk), 1 μM hydrocortisone (HC), or the same concentration of rolipram combined with 1 μM hydrocortisone (Roli+HC) or 10 μM forskolin (Roli+Fsk). Lysates of the cells were then assessed for expression of PDE4A, PDE4B or PDE4D by Western analysis. Equal loading of samples was verified by immunoblotting for tubulin.
30 million B-CLL cells or 10 million CCRF-CEM cells were incubated for 18 hours in media alone or with the addition of drugs as indicated in the text. Western analysis was then carried out as previously described^30. The PDE4A (66C12H), PDE4B (96G7A) and PDE4D (61D10E) antibodies were kind gifts from Dr. Sharon Wolda (ICOS, Bothell, Wash.) and have been previously described^30 31.

[2] = system: GRE luciferase construct in CCRF-CEM cells; experiment: GRE luciferase transactivation in CCRF-CEM cells; conditions: 40 μM forskolin or 10 μM rolipram
Procedure: B-CLL cells (FIG. 3A) or CCRF-CEM cells (FIG. 3B) were transiently transfected with a luciferase construct in which expression is regulated by GRE elements, followed by culture in 10 μM rolipram (R), 40 μM forskolin (Fsk), 1 μM hydrocortisone (HC), 1 mM Rp-8Br-cAMPS (Rp-8Br) or combinations of these agents. 12 hours after addition of the drugs, the relative luminescence of the samples was determined. The data shown are the mean of 8 experiments for B-CLL and two experiments for CCRF-CEM cells. The single asterisk denote a significant difference by paired student's t test between HC alone and either R/HC (FIG. 3A) or F/HC (FIG. 3B) (p<0.02). The double asterisk denotes a significant difference between Rp-8Br-cAMPS/HC and HC alone (p<0.02).
An MMTV GRE luciferase construct, originally created by Dr. R. Evans, was a gift from Dr. Remco Spanjaard (Dept. of Otolaryngology, Boston Medical Center)^29. […] Triplicate samples were analyzed with an MGM Instruments Optocomp I luminometer (Hamden, Conn.). Analysis of cell viability (trypan blue exclusion) and total protein (Pierce) verified that equivalent numbers of viable B-CLL cells were analyzed. 100 million CCRF-CEM cells were similarly transfected, cultured and analyzed except that Nucleofector program O17 was utilized. […] Data were analyzed using a two-sided paired t test for means.

COc1ccc(C2CNC(=O)C2)cc1OC1CCCC1 (stereo not shown) [rolipram, 4-(3-cyclopentyloxy-4-methoxyphenyl)-2-pyrrolidone]
B-CLL apoptosis, rolipram added to dexamethasone (B-CLL cells; 10 μM rolipram + dexamethasone dose titration, 48 hours): augmented B-CLL apoptosis beyond the levels observed with either agent alone | apoptosis by Hoechst 33342 analysis (B-CLL cells; B-CLL patient #1, No Rx 10): 17% | apoptosis by Hoechst 33342 analysis (B-CLL cells; B-CLL patient #2, No Rx 11): 13% | apoptosis by Hoechst 33342 analysis (B-CLL cells; B-CLL patient #3, No Rx 13): 24% | apoptosis by Hoechst 33342 analysis (B-CLL cells; B-CLL patient #4, No Rx 23): 34% | apoptosis by Hoechst 33342 analysis (B-CLL cells; B-CLL patient #5, No Rx 25): 37% | apoptosis by Hoechst 33342 analysis (B-CLL cells; B-CLL patient #6, No Rx 27): 45% | apoptosis by Hoechst 33342 analysis (B-CLL cells; B-CLL patient #7, No Rx 31): 67% | apoptosis by Hoechst 33342 analysis (B-CLL cells; B-CLL patient #8, No Rx 33): 62% | apoptosis by Hoechst 33342 analysis (B-CLL cells; B-CLL patient #9, No Rx 35): 81% | apoptosis by Hoechst 33342 analysis (B-CLL cells; B-CLL patient #10, No Rx 44): 58% | apoptosis by Hoechst 33342 analysis (B-CLL cells; B-CLL patient #11, No Rx 61): 75% | augmentation of induction of apoptosis relative to the increment induced with 100 μM hydrocortisone alone (B-CLL cells; addition of 10 μM rolipram to 100 μM hydrocortisone, five patients): 40±18% | expression of 63 and 68 kDa form of PDE4D [1]: either no or very low level rolipram-induced expression | expression of 63 and 68 kDa forms of PDE4B [1]: rolipram-inducible expression | GRE transactivation as a single agent [2]: none
